We go through 24 molecules from patent US10040798B2, “Pyrrolopyridazine inhibitors of IRAK4 activity” (MERCK SHARP & DOHME CORP., priority 2015, dated 2018).

Structures can show the parent of a compound that is named as a salt.

IRAK4, sequence (Q9NWZ3 whole entry): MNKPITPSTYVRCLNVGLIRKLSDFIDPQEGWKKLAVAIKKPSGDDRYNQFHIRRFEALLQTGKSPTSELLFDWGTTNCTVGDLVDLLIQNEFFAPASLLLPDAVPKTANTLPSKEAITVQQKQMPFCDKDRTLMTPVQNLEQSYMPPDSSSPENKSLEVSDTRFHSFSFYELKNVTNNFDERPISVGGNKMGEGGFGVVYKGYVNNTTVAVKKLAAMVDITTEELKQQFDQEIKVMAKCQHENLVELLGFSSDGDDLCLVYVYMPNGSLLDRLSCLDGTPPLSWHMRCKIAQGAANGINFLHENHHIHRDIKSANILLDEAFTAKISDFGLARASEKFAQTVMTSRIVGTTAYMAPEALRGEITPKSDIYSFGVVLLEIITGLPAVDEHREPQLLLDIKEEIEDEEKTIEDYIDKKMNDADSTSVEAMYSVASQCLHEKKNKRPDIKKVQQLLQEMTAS

The target of this assay is IRAK4 (Homo sapiens (Human), UniProt Q9NWZ3). Kind of assay: IRAK4 Kinase Assay (IMAP fluorescence polarization). It is filed as biochemical. The settings on record: 0.5 nM GST tagged IRAK4, 100 μM ATP, 30 minutes at 25° C., IMAP FP. How it is done:
The kinase activity of IRAK4 is determined by its ability to catalyze the phosphorylation of a fluorescent polypeptide substrate. The extent of phosphorylation is measured using the IMAP technology (Molecular Devices) where the phosphorylated fluorescent substrate binds to the large M (III)-based nanoparticles which reduces the rotational speed of the substrate and thus increases its fluorescent polarization (FP).
20 μL reaction mixture contains 10 mM TriHCl, pH 7.2, 0.5 nM GST tagged IRAK4 (SignalChem), 100 nM fluorescent peptide substrate (RP7030, Molecular Devices), 100 μM ATP, 1 mM DDT, 1 mM MgCl2, and 0.01% Tween 20. The reaction is initiated by the addition of ATP. After incubation for 30 minutes at 25° C., 60 μL of Progressive IMAP Reagent (Molecular Devices) is added to stop the reaction. Change in RP7030's FP is determined by a FP reader (Analyst HT, LJL BioSystems).
For `Cn1cc(NC(=O)c2ccc3ccc(N4C[C@@H]5CN[C@@H](C5)C4)nn23)c(C(F)(F)F)n1` (single isomer, unassigned) [Example 3, 2-[(1S,5S)- or (1R,5R)-3,6-diazabicyclo[3.2.1]oct-3-yl]-N-[1-methyl-3-(trifluoromethyl)-1H-pyrazol-4-yl]pyrrolo[1,2-b]pyridazine-7-carboxamide], the IC50 (usually the concentration at which inhibition is half-maximal) worked out at 85 nM.
The figure for `Cn1cc(NC(=O)c2ccc3ccc(N4C[C@H]5CN[C@H](C5)C4)nn23)c(C(F)(F)F)n1` (single isomer, unassigned) [Example 4, 2-[(1S,5S)- or (1R,5R)-3,6-diazabicyclo[3.2.1]oct-3-yl]-N-[1-methyl-3-(trifluoromethyl)-1H-pyrazol-4-yl]pyrrolo[1,2-b]pyridazine-7-carboxamide] is 131 nM.
`Cn1cc(NC(=O)c2ccc3ccc(N4C[C@@H]5CC[C@H]4CN5)nn23)c(Cl)n1` (single isomer, unassigned) [Example 33, N-(3-chloro-1-methyl-1H-pyrazol-4-yl)-2-[(1S,4S)- or (1R,4R)-2,5-diazabicyclo[2.2.2]oct-2-yl]pyrrolo[1,2-b]pyridazine-7-carboxamide trifluoroacetate] displayed an IC50 of 45 nM. This IC50 lies about 2.9-fold lower than the previous one.
With `Cn1cc(NC(=O)c2ccc3ccc(N4C[C@H]5CC[C@@H]4CN5)nn23)c(Cl)n1` (single isomer, unassigned) [Example 34, N-(3-chloro-1-methyl-1H-pyrazol-4-yl)-2-[(1S,4S)- or (1R,4R)-2,5-diazabicyclo[2.2.2]oct-2-yl]pyrrolo[1,2-b]pyridazine-7-carboxamide trifluoroacetate], the midpoint of inhibition, the IC50, lay at 15 nM.
The figure for `Cn1cc(NC(=O)c2ccc3ccc(N4C[C@@H]5CC[C@H]4CN5)nn23)c(Br)n1` (single isomer, unassigned) [Example 35, N-(3-bromo-1-methyl-1H-pyrazol-4-yl)-2-[(1S,4S)- or (1R,4R)-2,5-diazabicyclo[2.2.2]oct-2-yl]pyrrolo[1,2-b]pyridazine-7-carboxamide trifluoroacetate] is 34 nM.
The figure for `Cn1cc(NC(=O)c2ccc3ccc(N4C[C@H]5CC[C@@H]4CN5)nn23)c(Br)n1` (single isomer, unassigned) [Example 36, N-(3-bromo-1-methyl-1H-pyrazol-4-yl)-2-[(1S,4S)- or (1R,4R)-2,5-diazabicyclo[2.2.2]oct-2-yl]pyrrolo[1,2-b]pyridazine-7-carboxamide trifluoroacetate] is 22 nM.
Molecule `Cn1cc(NC(=O)c2ccc3ccc(N4C[C@@H]5CC[C@H]4CN5)nn23)c(C(F)F)n1` (single isomer, unassigned) [Example 37, 2-[(1S,4S)- or (1R,4R)-2,5-diazabicyclo[2.2.2]oct-2-yl]-N-[3-(difluoromethyl)-1-methyl-1H-pyrazol-4-yl]pyrrolo[1,2-b]pyridazine-7-carboxamide trifluoroacetate] registered an IC50 of 3 nM. Compared with the last molecule, the IC50 is about 7.3-fold lower.
`Cn1cc(NC(=O)c2ccc3ccc(N4C[C@H]5CC[C@@H]4CN5)nn23)c(C(F)F)n1` (single isomer, unassigned) [Example 38, 2-[(1S,4S)- or (1R,4R)-2,5-diazabicyclo[2.2.2]oct-2-yl]-N-[3-(difluoromethyl)-1-methyl-1H-pyrazol-4-yl]pyrrolo[1,2-b]pyridazine-7-carboxamide trifluoroacetate]: it took 2 nM to reach half-maximal inhibition (IC50). Compared with the last molecule, the IC50 is about 1.5-fold lower.
In turn, `Cn1cc(NC(=O)c2ccc3ccc(N[C@@H]4CCCCNC4)nn23)c(C(F)(F)F)n1` (single isomer, unassigned) [Example 39, 2-[(3R)- or (3S)-azepan-3-ylamino]-N-[1-methyl-3-(trifluoromethyl)-1H-pyrazol-4-yl]pyrrolo[1,2-b]pyridazine-7-carboxamide trifluoroacetate] had an IC50 of 2 nM.
Turning to `Cn1cc(NC(=O)c2ccc3ccc(N[C@H]4CCCCNC4)nn23)c(C(F)(F)F)n1` (single isomer, unassigned) [Example 40, 2-[(3R)- or (3S)-azepan-3-ylamino]-N-[1-methyl-3-(trifluoromethyl)-1H-pyrazol-4-yl]pyrrolo[1,2-b]pyridazine-7-carboxamide trifluoroacetate], inhibition was half-maximal at 2 nM (IC50).
Regarding `Cn1cc(NC(=O)c2ccc3ccc(N[C@@H]4CCCCNC4)nn23)c(C(F)F)n1` (single isomer, unassigned) [Example 41, 2-[(3R)- or (3S)-azepan-3-ylamino]-N-[3-(difluoromethyl)-1-methyl-1H-pyrazol-4-yl]pyrrolo[1,2-b]pyridazine-7-carboxamide trifluoroacetate], the IC50 amounted to 0.2 nM.
The same measure for `Cn1cc(NC(=O)c2ccc3ccc(N[C@H]4CCCCNC4)nn23)c(C(F)F)n1` (single isomer, unassigned) [Example 42, 2-[(3R)- or (3S)-azepan-3-ylamino]-N-[3-(difluoromethyl)-1-methyl-1H-pyrazol-4-yl]pyrrolo[1,2-b]pyridazine-7-carboxamide trifluoroacetate]: 0.3 nM.
The same measure for `Cn1cc(NC(=O)c2ccc3ccc(N4C[C@@H]5CC[C@H]4CN5)nn23)c(C#N)n1` (single isomer, unassigned) [Example 43, N-(3-cyano-1-methyl-1H-pyrazol-4-yl)-2-[(1S,4S)- or (1R,4R)-2,5-diazabicyclo[2.2.2]oct-2-yl]pyrrolo[1,2-b]pyridazine-7-carboxamide trifluoroacetate]: 25 nM; for `Cn1cc(NC(=O)c2ccc3ccc(N4C[C@H]5CC[C@@H]4CN5)nn23)c(C#N)n1` (single isomer, unassigned) [Example 44, N-(3-cyano-1-methyl-1H-pyrazol-4-yl)-2-[(1S,4S)- or (1R,4R)-2,5-diazabicyclo[2.2.2]oct-2-yl]pyrrolo[1,2-b]pyridazine-7-carboxamide trifluoroacetate]: 50 nM.
In turn, `Cn1cc(NC(=O)c2ccc3ccc(N4C[C@@H]5CN[C@@H](C5)C4)nn23)c(C(F)F)n1` (single isomer, unassigned) [Example 50, 2-[(1S,5S)- or (1R,5R)-3,6-diazabicyclo[3.2.1]oct-3-yl]-N-[3-(difluoromethyl)-1-methyl-1H-pyrazol-4-yl]pyrrolo[1,2-b]pyridazine-7-carboxamide] had an IC50 of 4 nM.
In the case of `Cn1cc(NC(=O)c2ccc3ccc(N4C[C@@H]5CN[C@@H](C5)C4)nn23)c(C(F)F)n1` (single isomer, unassigned) [Example 51, 2-[(1S,5S)- or (1R,5R)-3,6-diazabicyclo[3.2.1]oct-3-yl]-N-[3-(difluoromethyl)-1-methyl-1H-pyrazol-4-yl]pyrrolo[1,2-b]pyridazine-7-carboxamide], the IC50 turned out to be 12 nM.
The figure for `O=C(Nc1ccsc1Br)c1ccc2ccc(N3C[C@@H]4CC[C@H]3CN4)nn12` (single isomer, unassigned) [Example 78, N-(2-bromothiophen-3-yl)-2-[(1S,4S)- or (1R,4R)-2,5-diazabicyclo[2.2.2]oct-2-yl]pyrrolo[1,2-b]pyridazine-7-carboxamide trifluoroacetate] is 697 nM; for `O=C(Nc1ccsc1Br)c1ccc2ccc(N3C[C@H]4CC[C@@H]3CN4)nn12` (single isomer, unassigned) [Example 79, N-(2-bromothiophen-3-yl)-2-[(1S,4S)- or (1R,4R)-2,5-diazabicyclo[2.2.2]oct-2-yl]pyrrolo[1,2-b]pyridazine-7-carboxamide trifluoroacetate] it is 192 nM; for `N#Cc1sccc1NC(=O)c1ccc2ccc(N3C[C@@H]4CC[C@H]3CN4)nn12` (single isomer, unassigned) [Example 80, N-(2-cyanothiophen-3-yl)-2-[(1S,4S)- or (1R,4R)-2,5-diazabicyclo[2.2.2]oct-2-yl]pyrrolo[1,2-b]pyridazine-7-carboxamide formate] it is 103 nM.
For the molecule `N#Cc1sccc1NC(=O)c1ccc2ccc(N3C[C@H]4CC[C@@H]3CN4)nn12` (single isomer, unassigned) [Example 81, N-(2-cyanothiophen-3-yl)-2-[(1S,4S)- or (1R,4R)-2,5-diazabicyclo[2.2.2]oct-2-yl]pyrrolo[1,2-b]pyridazine-7-carboxamide formate], the IC50 is 356 nM.
`O=C(Nc1cscc1Cl)c1ccc2ccc(N3C[C@@H]4CC[C@H]3CN4)nn12` (single isomer, unassigned) [Example 83, N-(4-chlorothiophen-3-yl)-2-[(1S,4S)- or (1R,4R)-2,5-diazabicyclo[2.2.2]oct-2-yl]pyrrolo[1,2-b]pyridazine-7-carboxamide trifluoroacetate] returned an IC50 of 188 nM.
`O=C(Nc1cscc1Cl)c1ccc2ccc(N3C[C@H]4CC[C@@H]3CN4)nn12` (single isomer, unassigned) [Example 84, N-(4-chlorothiophen-3-yl)-2-[(1S,4S)- or (1R,4R)-2,5-diazabicyclo[2.2.2]oct-2-yl]pyrrolo[1,2-b]pyridazine-7-carboxamide trifluoroacetate] registered an IC50 of 126 nM. This IC50 and that of the molecule before are within 1.5-fold of each other.
`N#Cc1ccccc1NC(=O)c1ccc2ccc(N[C@@H]3CCCCNC3)nn12` (single isomer, unassigned) [Example 108, 2-[(3R)- or (3S)-azepan-3-ylamino]-N-(2-cyanophenyl)pyrrolo [1,2-b]pyridazine-7-carboxamide trifluoroacetate] gave a 50% inhibitory concentration (IC50) of 89 nM.
The figure for `N#Cc1ccccc1NC(=O)c1ccc2ccc(N[C@H]3CCCCNC3)nn12` (single isomer, unassigned) [Example 109, 2-[(3R)- or (3S)-azepan-3-ylamino]-N-(2-cyanophenyl)pyrrolo [1,2-b]pyridazine-7-carboxamide trifluoroacetate] is 7 nM.
